Measurements published in patent US5147604A, “Dioxo-aromatic compounds as oxygen scavengers” (Betz Laboratories, Inc., priority 1988, dated 1992).

Key:
[1] = Oxygen scavenging efficacy at elevated temperature and pressure in hot water flow system (Example 1, TABLE 1); settings: for % O2 Removed: 78°±3°C, 4±1 psig, contact 4±0.2 min, feedwater concentration, pH and initial O2 (ppm) vary by line of TABLE 1, values below 20% may be experimental artifacts; for oxygen scavenging (in words): test water, TABLE 1
Protocol: In a first series of tests, the oxygen scavenging efficacies of various materials were evaluated under conditions of elevated temperature and pressure. The test apparatus used was essentially a stainless steel hot water flow system equipped with appropriate monitoring instrumentation. Demineralized feedwater, adjusted to the appropriate pH and initial dissolved oxygen level (controlled by nitrogen sparging), was pumped from a reservoir at ambient temperature into a once-through heater. Temperature was monitored continuously by means of thermocouples at several locations along the length of the flow tubing. A solution containing the oxygen scavenger test material was loaded into a pump driven syringe and fed continuously to the heated flow stream through a port containing a stainless steel ribbon mixing baffle. The feedwater containing dissolved oxygen and the test material then traversed the flow tubing via a by-pass comprising an additional length of coiled tubing. Contact (or reaction) time of the test material and dissolved oxygen was governed by the choice of coil length. The tendency of the temperature to drop during residence in the coiled tubing was offset by the use of thermostatted heating tapes which maintained the temperature in this tubing at 78°±3°C. Upon exiting the coiled tubing, the stream flowed through a sample cooler to render the temperature of the liquid compatible with the operating range of a membrane-type dissolved oxygen probe. The cooled liquid was analyzed for dissolved oxygen via a D.O. flow cell, and pH was potentiometrically monitored in the flow tube immediately downstream of the D.O. probe. Outputs of the temperature, pH and dissolved oxygen probes during operation were monitored via strip chart recorders. The final destination of the reaction mixture was a reservoir which could be drained for analysis of reaction products, if desired.
Temperature in the system could be maintained at 78°±3° C. under 4±1 psig. Residence time of the feedwater in the flow tube from chemical feed point to D.O. flow cell outlet was 4±0.2 minutes. […] Entry into and residence in the sample cooler accounted for 0.5 minute of the total contact time. […]
The test solutions were prepared by initially mixing 10 grams of test material and 90 grams of demineralized water in glass bottles and allowing the mixture to remain in a shaker for several hours. If complete dissolution for a given material was observed after shaking, the pH of the solution was measured. When the pH of the solution was below 10.0, 7N sodium hydroxide was added dropwise until this value was reached. The quantity of added sodium hydroxide was recorded and later used in corrections for the active concentration of the solution. When the pH value of a stock solution was above pH 10.0 without requiring the addition of caustic, the solution was not further modified.
Results of these tests are reported in TABLE 1 below in terms of percent oxygen removed from the test stream. The precision of the initial and final dissolved oxygen values reported is approximately ±10%. […] The experimental uncertainties decrease with increasing values of percent dissolved oxygen removal.

[2] = Oxygen scavenging in feedwater of a working boiler, field-type conditions (Example 2, TABLES 2 and 3); settings: TABLE 2, actives 1.0-2.2 ppm, pH 8.7-9.4, steam load 11 or 15 (1000 lbs./hr.), initial O2 3.8-8 ppb by line
test rats = settings: NIOSH Registry of Toxic Effects of Chemical Substances (1976); cited from earlier work
[3] = Low (room) temperature reactivity with oxygen (Example 4, TABLE 5); settings: mole ratio of treatment to O2 and initial O2 by line of TABLE 5; for % O2 Removed, 1 Minute: room temperature 22.5-26.5 °C, pH 8.6-10.0; for % O2 Removed, 5 Minutes: room temperature 24.0-26.5 °C, pH 9.1-10.0
Text: In a further series of tests, the low (room) temperature reactivities with oxygen of various dioxo compounds were compared to that of hydrazine. The test apparatus basically consisted of a 1 liter three-necked flask fitted with a dissolved oxygen probe and a pH electrode. The intent of this apparatus was to show reaction kinetics differences rather than precise measurements (within seconds) of reaction times.
The flask was filled with deionized water which had been stripped of some dissolved oxygen by bubbling nitrogen through a diffuser stone. The pH was adjusted to the desired level with sodium hydroxide. The flask was sealed with a rubber septum, the dissolved oxygen probe and an inlet stopper. A magnetic stirrer bar was left in the flask for mixing. The mixer was turned on, and dissolved oxygen and temperature readings were recorded until the dissolved oxygen reached a constant value. Next, the appropriate quantity of additive was injected through the septum using a hypodermic syringe. The initial mole ratio of treatment to dissolved oxygen was determined by weighing feed chemical and measuring the oxygen concentration. […] Dissolved oxygen and temperature readings were then taken at appropriate time intervals.
The results of these tests are provided below in TABLE 5 in terms of relative amounts of % oxygen removed at the time intervals indicated (1 and 5 minutes).

[4] = to nitrogen, hydrogen and ammonia; cited from earlier work
[5] = Thermal decomposition studies of aqueous solutions in autoclaves (Example 5, TABLE 6); settings: hydrazine 60 ppm, 4 hours

O=C1C=CC(=O)c2ccccc21 [1,4-naphthoquinone]
% O2 Removed [1]: 99%
% O2 Removed [2]: 88%

O=Cc1ccc(O)cc1O [2,4-dihydroxybenzaldehyde]
% O2 Removed [1]: 14%
oxygen scavenging (in words) [1]: ineffective

O=Cc1cc(O)ccc1O [2,5-dihydroxybenzaldehyde]
% O2 Removed [1]: 98%

O=[N+]([O-])c1ccccc1O [2-nitrophenol]
% O2 Removed [1]: 0%

O=Cc1ccc(O)c(O)c1 [3,4-dihydroxybenzaldehyde]
% O2 Removed [1]: 73 ± 2%

CC(C)(C)c1ccc(O)c(O)c1 [4-tert-butylcatechol]
% O2 Removed [1]: 97%
LD50 Oral Rat (test rats): 2820 mg/kg
% O2 Removed [2]: 37%

O=C1C=CC(=O)C=C1 [benzoquinone]
% O2 Removed [1]: 96%
oxygen scavenging (in words) [1]: quite efficacious as an oxygen scavenger
% O2 Removed, 1 Minute [3]: 76%
% O2 Removed, 5 Minutes [3]: 90%
% O2 Removed [2]: 57%

Oc1ccccc1O [catechol]
% O2 Removed [1]: 96%
% O2 Removed, 1 Minute [3]: 7%
% O2 Removed, 5 Minutes [3]: 30%
LD50 Oral Rat (test rats): 3890 mg/kg
% O2 Removed [2]: 75%

NN [hydrazine]
temperature above which it decomposes [4]: Above 400 ° F.
LD50 Oral Rat (test rats): 60 mg/kg
% Decomposition ([5]; 0 psig, 70 °F.): 0%
% Decomposition ([5]; 1100 psig, 550 °F.): 52%
% Decomposition ([5]; 1620 psig, 600 °F.): 79%
% Decomposition ([5]; 2000 psig, 636 °F.): 93%

Oc1ccc(O)cc1 [hydroquinone]
LD50 Oral Rat (test rats): 320 mg/kg

Cc1ccccc1O [o-cresol]
% O2 Removed [1]: 17%

Nc1ccccc1N [o-phenylenediamine]
oxygen scavenging (in words) [1]: ineffective

O=C(O)c1ccc(O)cc1 [p-hydroxybenzoic acid]
% O2 Removed [1]: 13%

COc1ccc(O)cc1 [p-methoxyphenol]
% O2 Removed [1]: 40%

Nc1ccc(N)cc1 [p-phenylenediamine]
oxygen scavenging (in words) [1]: ineffective

Oc1ccc(-c2ccccc2)cc1 [p-phenylphenol]
% O2 Removed [1]: 40%

Oc1cccc(O)c1 [resorcinol]
oxygen scavenging (in words) [1]: ineffective
